Experimental findings from patent US20230014445A1, “ALLOSTERIC CHROMENONE INHIBITORS OF PHOSPHOINOSITIDE 3-KINASE (PI3K) FOR THE TREATMENT OF DISEASE” (Petra Pharma Corporation, priority 2021, published 2023) are described below.

SMILES strings stand for the structures. Like-named read-outs stand apart in the source and are kept apart here.

Test [1] addresses T1, human full length PIK3KA Wild-type (p110α/p85α complex) (Homo sapiens, UniProt P42336).
T1 construct: Recombinant, catalytically active human full length PIK3KA Wild-type and H1047R mutant were purchased; 6xHis (N); purchased EMD Millipore Sigma 14-602M
Nature of the test: PI3K-Alpha Kinase (PIK3CA) biochemical activity, wild-type (ADP-Glo). The note with it: 20 uM ATP. The essentials:
(§1)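 ADP formation, measured by ADP-Glo luminescence after reaction to about 10% ATP conversion at 27° C., gives 10-point 4-parameter IC50 curves normalized to no-enzyme and DMSO controls. Lipid substrate was PIP2diC8 or Soy PI at 50 uM, with 20 uM ATP. WT or H1047R p110α/p85α complex (1-5 nM) was preincubated 1 h with compound.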

The target in test [2] is T2, human full length PIK3KA H1047R mutant (p110α/p85α complex) (Homo sapiens, UniProt P42336, H1047R).
T2 construct: Recombinant, catalytically active human full length PIK3KA Wild-type and H1047R mutant were purchased; 6xHis (N); purchased EMD Millipore Sigma 14-792M
Nature of the test: PI3K-Alpha Kinase (PIK3CA) biochemical activity, H1047R mutant (ADP-Glo). The note with it: 20 uM ATP. In short, it runs like this:
as §1

Test [3] deals with PI3K-α (PIK3CA) in MDA-MB-453 cells (Homo sapiens, UniProt P42336). Nature of the test: PI3K-Alpha Kinase (PIK3CA) activity in vitro cell based assay (AlphaLisa SureFire). The protocol: PI3K-Alpha Kinase (PIK3CA) Activity In Vitro Cell Based Assay and Determining IC50 Values for Inhibitors
The MDA-MB-453 (ATCC-HTB-131) cell line was obtained from the American Type Culture Collection (Manassas, Va.). Cells were maintained in Dulbecco's Modified Eagle Media (DMVEM, Gibco 11965-092) supplemented with 10% Fetal Bovine Serum, heat inactivated (FBS HI, Gibco 10082-147), 1× non-essential amino acids (NEAA, Gibco 11140-050), and 1 mM sodium pyruvate (Gibco 11360-070). Cultures were maintained in a humidified incubator at 37° C. under […].
For compound testing in 0% FBS, MDA-MB-453 cells were seeded at a density of 1.5×10^4 cells per well in white 384-well plates in 20 μl of Minimum Essential Media (MEM) assay media with 1×NEAA, 1 mM sodium pyruvate, and 1 μg/mL human insulin (Sigma I9278). Compounds dissolved in 10 mM stock solutions in DMSO were serially diluted 1:3 in DMSO to generate a 10-point dilution series and plated using an acoustic liquid handler system (Echo 550 Series Liquid Handler, Labcyte). A 5× intermediate compound dilution plate in MEM with 1×NEAA and 1 mM sodium pyruvate (150 μM starting compound concentration in 1.5% DMSO) was then prepared. Five μl of the intermediate serially diluted compounds were added to the cell plate to final concentrations ranging from […] in 0.3% DMSO. 0.3% DMSO alone was used to establish the maximum (MAX) signal and GDC-0032 at a final concentration of 1 μM was used as a reference compound for the minimum (MIN) signal. After 3 hours treatment, the medium was removed, and the cells lysed in 10 μL of 1× SureFire Lysis buffer with shaking for 10 minutes at room temperature. The Acceptor Mix (Reaction Buffer 1+Reaction Buffer 2+Activation Buffer+SureFire Ultra Acceptor Beads) was prepared by diluting Activation buffer 25-fold in combined Reaction Buffer 1 and Reaction Buffer 2. The Acceptor beads were diluted 50-fold in the combined Reaction Buffers. Five μL of Acceptor Mix was added to each well, the plate was sealed and covered with foil and incubated for 1 hour at room temperature. The Donor Mix (dilution buffer+SureFire Ultra Donor Beads) was prepared by diluting Donor Beads 50-fold in dilution buffer. Five μL of the Donor Mix was added to each well and the plate sealed and covered with foil and incubated for 1 hour at room temperature in the dark. The plates were read on a Neo2 plate reader instrument from Biotek using standard AlphaLisa settings.
Compounds were tested in duplicate and the average % inhibition at each compound concentration was used to generate a single dose response curve. The data were processed using the Genedata-Screener tool. Relative IC50 values were determined using luminescence units by calculating percent inhibition with respect to the in-plate “MIN” (GDC-0032 reference control) and “MAX” (DMSO) controls. The data was analyzed using a 4-parameter nonlinear logistic equation (four-parameter logistic concentration-response curve):
Y=bottom+[(top−bottom)/1+(X/IC50)slope]
where Y=% inhibition, X=concentration of inhibitor, bottom=minimum value of y attained by curve-fit, top=maximum value of y attained by curve-fit and slope=steepness of curve at the IC50.
% Inhibition=[(signal at X−median Min)/(median Max−median Min)]×100
IC50: concentration of compound that reduces a given response (ligand binding, enzyme response) by 50%. Relative IC50: concentration giving half the compound's maximum response.
For IC50 values shown in Table B, “A” means IC50<50 nM; “B” means IC50 ranging between 50 nM and 100 nM; “C” means IC50 ranging between 100 nM and 500 nM; “D” means IC50>500 nM.

Setting [4] is: 0% FBS, 3 hours treatment, read-out: PI3K-α (PIK3CA) in vitro cell based assay IC50.
Setting [5] is: read-out: PI3K-α (PIK3CA) in vitro cell based assay IC50, 0% FBS, 3 hours treatment.

T2 sequence (P42336 whole entry H1047R): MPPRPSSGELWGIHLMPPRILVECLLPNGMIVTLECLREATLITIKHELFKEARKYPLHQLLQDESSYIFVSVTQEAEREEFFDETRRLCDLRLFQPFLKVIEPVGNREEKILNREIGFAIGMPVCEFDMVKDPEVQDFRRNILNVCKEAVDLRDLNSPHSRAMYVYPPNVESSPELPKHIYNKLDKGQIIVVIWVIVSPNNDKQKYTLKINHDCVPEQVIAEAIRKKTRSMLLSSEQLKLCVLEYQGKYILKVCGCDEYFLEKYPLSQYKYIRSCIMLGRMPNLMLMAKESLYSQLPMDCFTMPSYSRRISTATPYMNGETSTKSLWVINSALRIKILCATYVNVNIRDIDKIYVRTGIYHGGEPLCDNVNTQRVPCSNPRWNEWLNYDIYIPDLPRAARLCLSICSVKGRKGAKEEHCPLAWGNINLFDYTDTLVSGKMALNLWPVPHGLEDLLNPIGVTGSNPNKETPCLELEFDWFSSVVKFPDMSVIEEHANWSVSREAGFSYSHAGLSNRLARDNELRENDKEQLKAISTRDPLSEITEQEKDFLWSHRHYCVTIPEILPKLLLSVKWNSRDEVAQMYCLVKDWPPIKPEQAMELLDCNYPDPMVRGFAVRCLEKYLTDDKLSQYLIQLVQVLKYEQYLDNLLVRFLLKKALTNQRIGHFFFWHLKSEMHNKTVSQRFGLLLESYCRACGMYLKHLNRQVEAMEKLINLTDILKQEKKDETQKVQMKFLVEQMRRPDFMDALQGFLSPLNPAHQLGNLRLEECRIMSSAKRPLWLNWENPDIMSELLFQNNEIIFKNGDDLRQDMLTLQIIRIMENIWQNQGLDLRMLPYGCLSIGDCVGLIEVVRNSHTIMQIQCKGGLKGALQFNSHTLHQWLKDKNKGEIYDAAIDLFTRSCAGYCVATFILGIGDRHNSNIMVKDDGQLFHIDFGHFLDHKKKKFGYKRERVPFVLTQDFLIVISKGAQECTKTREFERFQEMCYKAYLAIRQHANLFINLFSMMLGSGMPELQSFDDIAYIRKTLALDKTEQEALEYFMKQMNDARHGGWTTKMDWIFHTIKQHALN
T2 sequence (P27986 whole entry partner): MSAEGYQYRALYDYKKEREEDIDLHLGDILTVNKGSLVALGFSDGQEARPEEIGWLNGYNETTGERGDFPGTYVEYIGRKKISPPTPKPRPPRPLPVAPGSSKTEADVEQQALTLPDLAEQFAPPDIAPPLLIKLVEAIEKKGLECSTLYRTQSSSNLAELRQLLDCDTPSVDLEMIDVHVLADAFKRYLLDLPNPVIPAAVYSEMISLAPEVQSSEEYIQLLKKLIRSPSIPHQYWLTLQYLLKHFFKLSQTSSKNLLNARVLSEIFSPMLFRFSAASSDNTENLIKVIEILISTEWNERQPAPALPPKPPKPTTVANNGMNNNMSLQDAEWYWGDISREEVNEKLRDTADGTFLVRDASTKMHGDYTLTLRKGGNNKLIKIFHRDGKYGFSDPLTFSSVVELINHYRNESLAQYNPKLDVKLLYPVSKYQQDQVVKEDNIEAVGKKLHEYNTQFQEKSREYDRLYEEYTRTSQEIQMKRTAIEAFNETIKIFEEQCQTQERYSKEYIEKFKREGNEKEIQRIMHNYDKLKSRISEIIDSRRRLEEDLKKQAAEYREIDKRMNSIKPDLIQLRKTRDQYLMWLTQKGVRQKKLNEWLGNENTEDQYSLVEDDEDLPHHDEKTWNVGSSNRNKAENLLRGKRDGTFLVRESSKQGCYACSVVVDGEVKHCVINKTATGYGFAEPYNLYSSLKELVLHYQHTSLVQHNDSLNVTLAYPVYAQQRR
PI3K-α (PIK3CA) in MDA-MB-453 cells, sequence (P42336 whole entry): as the sequence (P42336 whole entry H1047R) above, with R1047H counted along it
PI3K-α (PIK3CA) in MDA-MB-453 cells, sequence (P27986 2-724, further chain): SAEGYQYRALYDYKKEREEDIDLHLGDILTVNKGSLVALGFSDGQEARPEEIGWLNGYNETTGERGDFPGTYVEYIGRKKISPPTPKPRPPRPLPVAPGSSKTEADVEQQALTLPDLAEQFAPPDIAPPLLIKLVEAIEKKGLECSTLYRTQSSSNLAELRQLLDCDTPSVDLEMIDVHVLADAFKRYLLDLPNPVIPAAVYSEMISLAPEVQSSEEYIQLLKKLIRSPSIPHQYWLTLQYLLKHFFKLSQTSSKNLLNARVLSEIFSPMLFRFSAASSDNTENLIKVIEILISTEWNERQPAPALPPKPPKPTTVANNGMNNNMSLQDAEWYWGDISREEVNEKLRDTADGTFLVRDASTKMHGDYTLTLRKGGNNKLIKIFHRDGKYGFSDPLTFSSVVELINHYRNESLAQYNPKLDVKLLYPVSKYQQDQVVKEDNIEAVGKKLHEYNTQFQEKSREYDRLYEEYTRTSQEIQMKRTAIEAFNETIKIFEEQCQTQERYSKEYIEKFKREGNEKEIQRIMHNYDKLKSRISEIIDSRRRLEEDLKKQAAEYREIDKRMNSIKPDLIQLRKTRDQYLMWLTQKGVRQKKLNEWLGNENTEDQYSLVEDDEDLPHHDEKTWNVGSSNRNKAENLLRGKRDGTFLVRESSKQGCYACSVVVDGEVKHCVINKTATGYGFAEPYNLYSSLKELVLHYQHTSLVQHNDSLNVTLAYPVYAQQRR

For `COc1ncc(-c2cc(=O)c3cc(C)cc(C(C)Nc4ccccc4C(=O)O)c3o2)cn1` (single isomer, unassigned) [Example 5, 2-[1-[2-(2-Methoxypyrimidin-5-yl)-6-methyl-4-oxo-chromen-8-yl]ethylamino]benzoic acid], the IC50 in test [1] (PIP2diC8 lipid substrate) is above 10000 nM; in test [2] (PIP2diC8 lipid substrate), above 10000 nM; in test [3] (setting [4]), above 500 nM.

On to `Cc1cc(C(C)Nc2ccccc2C(=O)O)c2oc(-c3cncc(F)c3)cc(=O)c2c1` (single isomer, unassigned) [Example 44, 2-[1-[2-(5-Fluoro-3-pyridyl)-6-methyl-4-oxo-chromen-8-yl]ethylamino]benzoic acid, Isomer 2,2,2,2-trifluoroacetic acid], for which the figures for the IC50 in test [1] (Soy PI lipid substrate), in test [2] (Soy PI lipid substrate) and in test [3] (setting [5]) were 1000 to 5000 nM, below 500 nM and below 50 nM, respectively.

For the compound `CC(Nc1ccccc1C(=O)O)c1cc(F)cc2c(=O)cc(-c3ccccn3)oc12` (single isomer, unassigned) [Example 46, 2-[1-[6-Fluoro-4-oxo-2-(2-pyridyl)chromen-8-yl]ethylamino]benzoic acid, Isomer 1,2,2,2-trifluoroacetic acid], the results for the IC50 in test [1] (Soy PI lipid substrate), in test [2] (Soy PI lipid substrate) and in test [3] (setting [5]) were 5000 to 10000 nM, below 500 nM and below 50 nM, respectively.

Regarding `Cc1cc(C(C)Nc2ccccc2C(=O)O)c2oc(-c3cnn(C(F)F)c3)cc(=O)c2c1` (single isomer, unassigned) [Example 52, 2-[1-[2-[1-(Difluoromethyl)pyrazol-4-yl]-6-methyl-4-oxo-chromen-8-yl]ethylamino]benzoic acid, Isomer 2,2,2,2-trifluoroacetic acid], the figures for the half-maximal inhibitory concentration (IC50) in test [1] (Soy PI lipid substrate), in test [2] (Soy PI lipid substrate) and in test [3] (setting [5]) were 1000 to 5000 nM, below 500 nM and 50 to 100 nM, respectively.

Consider `CC(Nc1ccccc1C(=O)O)c1cc(F)cc2c(=O)cc(-c3cnn(-c4cccnc4)c3)oc12` (single isomer, unassigned) [Example 55, 2-[1-[6-Fluoro-4-oxo-2-[1-(3-pyridyl)pyrazol-4-yl]chromen-8-yl]ethylamino]benzoic acid, Isomer 1,2,2,2-trifluoroacetic acid], for which the half-inhibitory concentration (IC50) is 5000 to 10000 nM in test [1] (Soy PI lipid substrate), below 500 nM in test [2] (Soy PI lipid substrate) and 100 to 500 nM in test [3] (setting [5]).

On to `COc1ccc(-c2oc3c(C(C)Nc4ccccc4C(=O)O)cc(C)cc3c(=O)c2C)cn1` (single isomer, unassigned) [Example 65, 2-[1-[2-(6-Methoxy-3-pyridyl)-3,6-dimethyl-4-oxo-chromen-8-yl]ethylamino]benzoic acid, Isomer 1,2,2,2-trifluoroacetic acid], for which the half-inhibitory concentration (IC50) in test [1] (Soy PI lipid substrate) was 1000 to 5000 nM; in test [2] (Soy PI lipid substrate) it was below 500 nM; in test [3] (setting [5]), below 50 nM.

`COc1ccccc1-n1cc(-c2oc3c(C(C)Nc4ccccc4C(=O)O)cc(C)cc3c(=O)c2C)cn1` (single isomer, unassigned) [Example 70, 2-[1-2-[1-(2-Methoxyphenyl)pyrazol-4-yl]-3,6-dimethyl-4-oxo-chromen-8-yl]ethylamino]benzoic acid, Isomer 1,2,2,2-trifluoroacetic acid]: the values for the IC50 in test [1] (Soy PI lipid substrate), in test [2] (Soy PI lipid substrate) and in test [3] (setting [5]) were 1000 to 5000 nM, 1000 to 5000 nM and below 50 nM, respectively.

Take `COc1ncc(-n2cc(-c3oc4c(C(C)Nc5ccccc5C(=O)O)cc(C)cc4c(=O)c3C)cn2)cn1` (single isomer, unassigned) [Example 72, 2-[1-[2-[1-(2-Methoxypyrimidin-5-yl)pyrazol-4-yl]-3,6-dimethyl-4-oxo-chromen-8-yl]ethylamino]benzoic acid, Isomer 1,2,2,2-trifluoroacetic acid]: the IC50 is 1000 to 5000 nM in test [1] (Soy PI lipid substrate), below 500 nM in test [2] (Soy PI lipid substrate) and 50 to 100 nM in test [3] (setting [5]).

For `Cc1cc(C(C)Nc2ccccc2C(=O)O)c2oc(-c3cnn(-c4ccc(C#N)cc4)c3)c(C)c(=O)c2c1` (single isomer, unassigned) [Example 73, 2-[1-[2-[1-(4-Cyanophenyl)pyrazol-4-yl]-3,6-dimethyl-4-oxo-chromen-8-yl]ethylamino]benzoic acid, Isomer 1,2,2,2-trifluoroacetic acid], the values for the IC50 in test [1] (Soy PI lipid substrate), in test [2] (Soy PI lipid substrate) and in test [3] (setting [5]) were 500 to 1000 nM, below 500 nM and 50 to 100 nM, respectively.

Regarding `Cc1cc(C(C)Nc2ccccc2C(=O)O)c2oc(-c3cnn(-c4cccc(C#N)c4)c3)c(C)c(=O)c2c1` (single isomer, unassigned) [Example 74, 2-[1-[2-[1-(3-Cyanophenyl)pyrazol-4-yl]-3,6-dimethyl-4-oxo-chromen-8-yl]ethylamino]benzoic acid, Isomer 1,2,2,2-trifluoroacetic acid], the IC50 is 500 to 1000 nM in test [1] (Soy PI lipid substrate), below 500 nM in test [2] (Soy PI lipid substrate) and below 50 nM in test [3] (setting [5]).

Take `Cc1cc(C(C)Nc2ccccc2C(=O)O)c2oc(-c3cc(C)n[nH]3)cc(=O)c2c1` (single isomer, unassigned) [Example 75, 2-[1-[6-Methyl-2-(3-methyl-1H-pyrazol-5-yl)-4-oxo-chromen-8-yl]ethylamino]benzoic acid, Isomer 2,2,2,2-trifluoroacetic acid]: the IC50 in test [1] (Soy PI lipid substrate) is 5000 to 10000 nM; in test [2] (Soy PI lipid substrate), below 500 nM; in test [3] (setting [5]), 50 to 100 nM.

With `Cc1cc(C(C)Nc2ccc(Cl)nc2C(=O)O)c2oc(-c3cncc(F)c3)c(C)c(=O)c2c1` (single isomer, unassigned; isomer 1) [Example 138, 6-Chloro-3-[1-[2-(5-fluoro-3-pyridyl)-3,6-dimethyl-4-oxo-chromen-8-yl]ethylamino]pyridine-2-carboxylic acid, Isomer 1], in test [3] (setting [4]), the half-maximal inhibitory concentration (IC50) is below 50 nM.

For the compound `Cc1cc(C(C)Nc2cccnc2C(=O)O)c2oc(-c3cccc(C(F)F)n3)c(C)c(=O)c2c1` (single isomer, unassigned; isomer 1) [Example 139, 3-[1-[2-[6-(Difluoromethyl)-2-pyridyl]-3,6-dimethyl-4-oxo-chromen-8-yl]ethylamino]pyridine-2-carboxylic acid; 2,2,2-trifluoroacetic acid, Isomer 1], the 50% inhibitory concentration (IC50) in test [3] (setting [5]) was 100 to 500 nM.

As to `Cc1cc(C(C)Nc2cccc(F)c2C(=O)O)c2oc(-c3ccccn3)c(C)c(=O)c2c1` (single isomer, unassigned; isomer 1) [Example 140, 2-[1-[3,6-Dimethyl-4-oxo-2-(2-pyridyl)chromen-8-yl]ethylamino]-6-fluoro-benzoic acid, Isomer 1], in test [3] (setting [4]), the half-maximal inhibitory concentration (IC50) was 50 to 100 nM.

Turning to `Cc1cc(C(C)Nc2ccc(Cl)nc2C(=O)O)c2oc(-c3cccc(C(F)F)n3)c(C)c(=O)c2c1` (single isomer, unassigned; isomer 1) [Example 141, 6-Chloro-3-[1-[2-[6-(difluoromethyl)-2-pyridyl]-3,6-dimethyl-4-oxo-chromen-8-yl]ethylamino]pyridine-2-carboxylic acid, Isomer 1], the IC50 in test [3] (setting [4]) is below 50 nM.
